Measurements reported in patent US20230071014A1 (priority 2020, published 2023).

Legend:
[1] = system: SARS-CoV; conditions: cited from earlier work; for Inhibitory activity against SARS-CoV: Thorax 2004, 59: 252-256
[2] = system: SARS-CoV-2; experiment: Ritonavir reducing viral nucleic acid load in SARS-CoV-2 infected Vero E6 cells (qRT-PCR); type: cell-based, SARS-CoV-2 (nCoV-2019BetaCoV/Wuhan/WIV04/2019 strain); conditions: for Copy number of virus genome: Vero E6 cells, supernatant, vehicle 5762396
Description: (1) Drug Treatment of Virus-Infected Cells
Vero E6 cells (purchased from ATCC, Catalog No. 1586) was inoculated on a 24-well plate, cultured for 24 hours; then virus infection was carried out. Specifically, SARS-CoV-2 (2019-nCoV) virus (nCoV-2019BetaCoV/Wuhan/WIV04/2019 strain, provided by Wuhan Institute of Virology, Chinese Academy of Sciences) was diluted with 2% cell maintenance solution (formulation: FBS (purchased from Gibco company, Catalog No. 16000044) was added to MEM (purchased from Gibco, Catalog No. 10370021) at a volume ratio of 2%, thereby obtaining the 2% cell maintenance solution) to a corresponding concentration, and then added to a 24-well plate so that each well contained a viral load of 100TCID50. […] To the vehicle control group, the 2% cell maintenance solution without any test drugs was added.
RNA extraction kit was purchased from Qiagen Company, Catalog No. 74106. The consumables (spin columns, RNase-free 2 ml collection tubes, etc.) and reagents (RLT, RW1, RPE, RNase-free water, etc.) involved in the following RNA extraction steps were part of the kit. The following extraction steps were recommended steps in the kit instruction.
1) 100 μL of the supernatant was taken from the tested plate and added to a nuclease-free EP tube, then 350 μL of Buffer RLT was added to each well and mixed by beating with a transfer liquid gun until complete lysis was achieved, then centrifugation was carried out to obtain a supernatant;
2) an equal volume of 70% ethanol was added to the supernatant obtained in 1) and mixed well;
3) the mixture solution obtained in 2) was transferred to a RNase-free spin column, and centrifuged at 12000 rpm for 15 seconds, and the waste liquid was discarded;
4) 700 μL of Buffer RW1 was added to the spin column, and centrifuged at 12000 rpm for 15 seconds to clean the spin column, and the waste liquid was discarded;
5) 500 μL of Buffer RPE was added to the spin column, and centrifuged at 12000 rpm for 15 seconds to clean the spin column, and the waste liquid was discarded;
6) 500 μL of Buffer RPE was added to the spin column, and centrifuged at 12000 rpm for 2 min to clean the spin column, the waste was discarded;
7) a new RNase-free 2 ml collection tube was used for replacement, centrifugation was carried out at 12000 rpm for 1 min, the spin column was dried, and then the spin column was transferred to a 1.5 ml collection tube in step 8);
8) a new 1.5 ml collection tube was used for replacement, in which the spin column dried in step 7) was placed, and […] of RNase-free water was added to the spin column, and centrifugation was carried out at 12000 rpm for 2 minutes, the obtained eluate contained the corresponding RNA, then the RNase inhibitor (purchased from NEB company, Catalog No. […]) was added, and Nano Drop (purchased from Thermo scientific, Nano Drop One) was used to detect each RNA concentration.
(3) RNA Reverse Transcription
In the experiment, the reverse transcription kit (PrimeScript™ RT reagent Kit with gDNA Eraser, Catalog No. RRO47Q) produced by TaKaRa was used for RNA reverse transcription.
The steps were as follows.
(1) Removal of gDNA: RNA samples of each experimental group were collected, 1 μg of each sample was taken for reverse transcription. First, 2 μl of 5×gDNA Eraser Buffer was added to the RNA sample of each experimental group, the reaction system was supplemented with RNase-free water to reach 10 μl, mixed well, and subjected to water bath at 42° C. for 2 min to remove the gDNA that might be present in the sample;
(2) Reverse transcription: Appropriate amounts of enzyme, primer Mix and reaction buffer were added to the sample obtained in […], RNase-free water was added to supplement to reach a volume of 20 μl, the reaction was performed in a water bath at 37° C. for 15 minutes, and then in water bath at 85° C. for 5 seconds, to obtain cDNA by transcription. […]

[3] = system: HIV-1 isolates; conditions: low passage clinical isolates, n=13; cited from earlier work

Row | SMILES | Inhibitory activity against SARS-CoV [1] | Copy number of virus genome ([2]; 0.14 μM, 48 hours after infection) | Copy number of virus genome ([2]; 0.41 μM, 48 hours after infection) | Copy number of virus genome ([2]; 1.23 μM, 48 hours after infection) | Copy number of virus genome ([2]; 3.70 μM, 48 hours after infection) | Copy number of virus genome ([2]; 11.11 μM, 48 hours after infection) | Copy number of virus genome ([2]; 33.33 μM, 48 hours after infection) | Reduction of viral RNA load in Vero E6 cells infected by SARS-CoV-2 ([2]; 48 hours after infection, FIG. 1) | Inhibition of the replication of SARS-CoV-2 virus genome in the infected supernatant ([2]; at concentrations of 33 μM, 11.1 μM) | Effectiveness against SARS-CoV ([1]; Biochemical and Biophysical Research Communications 318 (2004) 719-725) | EC50 [3] [nM]
1 | Cc1cccc(C)c1OCC(=O)N[C@@H](Cc1ccccc1)[C@@H](O)C[C@H](Cc1ccccc1)NC(=O)[C@H](C(C)C)N1CCCNC1=O [lopinavir] | inhibits SARS-CoV | – | – | – | – | – | – | – | – | – | –
2 | CC(C)c1nc(CN(C)C(=O)N[C@H](C(=O)N[C@@H](Cc2ccccc2)C[C@H](O)[C@H](Cc2ccccc2)NC(=O)OCc2cncs2)C(C)C)cs1 [ritonavir, [5S-(5R,8R,10R,11R)]-10-hydroxy-2-methyl-5-(1-methylethyl)-1-[2-(1-methylethyl)-4-thiazolyl]-3,6-dioxo-8,11-bis(phenylmethyl)-2,4,7,12-tetraazatridecan-13-oic acid, 5-thiazolyl methyl ester] | does not have inhibitory activity | 6032699 | 5632446 | 5565821 | 6213595 | 2236225 | 1855399 | inhibitory activity is dose-dependent | could effectively inhibit | ineffective | 22
